# Experimental data: US11464751B2, “Use of fluoroethylnormemantine for the prevention and treatment of anxiety” (REST THERAPEUTICS, priority 2017, dated 2022)
# Experiments:
# naive rats (Wistar) [1] = assay: Fear conditioning + extinction + stabilization (PTSD model); format: in vivo, rat; settings: for Percentage of time of tetany (freezing) during the stabilization phase: 10 mg/kg
# Source text: Several animal models have been developed to mimic the traumatic events that induce intense and recurrent fear symptoms characteristic of PTSD. • Pavlovian fear conditioning of the animals: This animal model consists of Pavlovian-type fear conditioning (Zovkic, Neuropsychopharmacology Reviews (2013) 38, 77-93): mice (or rats) are trained to associate exposure to danger (electric shock, etc.) with the presence of a specific cue or environment (sound cue for example). The memory of this association (danger-cue) is later tested by measuring tetany behavior (through fear) when the animal is re-exposed to the conditioning cue in the absence of real danger.
# Again, the occurrence of symptoms of PTSD are assessed after a certain period of time, without exposure to the hazard, to simulate the long-term onset of PTSD pathology. • Fear extinction: After a fear conditioning as described above it can be of interest to apply a protocol to extinguish this fear. Classically, this phase is placed 24 hours after the conditioning phase.
# The extinction protocols model the relearning of the normal (non-fear-motivated) response to the cue (sound) and are very useful in modeling PTSD. • Fear stabilization: It can be useful, to assess the performance of a treatment, to add a stabilization phase after the extinction phase, spaced 24 h apart. Typically, this phase puts the animals back under the extinction phase conditions. It then allows the detection of staggered performances of the treatments, but also of the resurgence of tetany (rebound effect).
# In the following examples, the effects of memantine, propranolol and fluoroethylnormemantine (FENM, the subject of the present invention) are studied in naive rats (Wistar) subjected to various tests related to depression or anxiety and then compared.
# The test substances are administered to rats intraperitoneally in a volume of 5 ml/kg, 30 minutes before the behavioral tests are performed.
# The injected solutions contain either of the molecules in the form of one of their salts, a hydrochloride (memantine·HCl and FENM·HCl) for the nitrogen derivatives and as such for propranolol, at the concentrations indicated below in a mixture of 95% (NaCl 0.9% ww in water)/5% ethanol. In each experiment, the dose per kilogram is referenced.
# The applicant used a fear conditioning test in which the clue (neutral conditional stimulus) is a sound, coupled with a danger (aversive unconditional stimulus) which is an electric shock delivered by the floor of the box. This conditioning is followed by a fear extinction phase with injection of the treatment solutions to be tested and then by a test phase itself. • Fear Conditioning Phase (FC): fear conditioning takes place in a standard conditioning box (context A, white box in Table 7) and the rats (8 per group) are subjected to 3 “sound-electroshock” pairs at times of 180 s, 381 s and 582 s after being placed in the box. Each sound lasts 20 s and each electroshock lasts 1 s with a current of 1 mA. • The fear extinction phase (Ext.) is conducted as follows: the rats are placed in a box similar to the one that will be used for the final test (context B, pink box in Table 7), for a 25-minute session. During this session, 24 presentations are made with the same sound as that used during the conditioning session (20 s each, 35 s apart). Of course, no electric shock is delivered, and the percentage of time of tetany (“freezing”) during the phase is recorded. • Stabilization phase: the day after the extinction phase, 30 minutes before the test phase, […] of 3 sounds (same sequence as used for conditioning), recording the percentage of time they remain still during this test phase. […]
# naive rats (Wistar) [2] = settings: 5 mg/kg, only after 7 days of treatment; cited from earlier work
Structure (SMILES),Percentage of time of tetany (freezing) during the stabilization phase (naive rats (Wistar) [1]; Early treatment: one injection 30 minutes before the extinction phase),Percentage of time of tetany (freezing) during the stabilization phase (naive rats (Wistar) [1]; Late treatment: one injection 30 minutes before the stabilization phase),Percentage of time of tetany (freezing) during the stabilization phase (naive rats (Wistar) [1]; Protective effect: one injection 30 minutes before the conditioning phase),"tetany in the stabilization phase compared with control (naive rats (Wistar) [1]; administered at conditioning, early or late post-traumatic treatment)","tetany during the extinction phase (naive rats (Wistar) [1]; administered during the extinction phase, effect lost during the stabilization phase)","anxiolytic activity (light-dark box, for comparison) (naive rats (Wistar) [2])"
"CC(C)NCC(O)COc1cccc2ccccc12 (stereo not drawn) [Propranolol, propranolol, reference compound]",26%,29%,28%,does not differentiate from the control,reduces tetany,
CNCCC(Oc1ccc(C(F)(F)F)cc1)c1ccccc1 (stereo not drawn) [fluoxetine],,,,,,anxiolytic activity
